Source: patent US5591711A, “L-lysyl-glycyl-L-histidine and therapeutic agent for wound healing containing the same” (Hoechst Japan Limited, priority 1994, dated 1997)
Peptide text beside a SMILES is read from it.

Test system: Balb/3T3 cells
Assay: Fibroblast proliferation promoting activity (3H-thymidine incorporation)
Assay type: cell-based
Details: Balb/3T3 fibroblasts; for Incorporated 3H-thymidine: 15 h incubation then 6 h 3H-thymidine, mean ± SD, 4 cases per group
Protocol: Fibroblast cell strains, Balb/3T3 cells (purchased from ATCC) were inoculated into a 96-well culture plate at-5×10^3 cells/well, 100 μl of 10% calf serum-containing Dulbecco Modified Eagle Medium (hereinafter referred to as DME) was added and incubated at. 37 uC for 24 hours in an incubator. Then, the culture medium was removed and the cells were washed. One hundred μl of lowered serum medium (0.2% calf serum-containing DME) Was added to the wells and incubation was continued for another 3 days. L-lysyl-glycyl-L-histidine obtained in Example 1 was added thereto at 10 μl/well and incubation was performed for 15 hours. The culture medium contains a trace amount of Cu2+, and a part of L-lysyl-glycyl-L-histidine may form copper complexes. The 3H-thymidine was added to be 74 KBq/ml and incubation was performed for 6 hours. After completion of the incubation, the medium was removed, the cells were collected and the amount of 3H-thymidine incorporated in the cells was determined.

## NCCCC[C@H](N)C(=O)NCC(=O)N[C@@H](Cc1c[nH]cn1)C(=O)O [L-lysyl-glycyl-L-histidine] (H-Lys-Gly-His-OH)
10^-6 to 10^-3 M, conclusion from Table 1
  cell proliferation promoting activity: dose-dependent cell proliferation promoting activity
Dose 10^-3 M
  Incorporated 3H-thymidine: 7719.5 ± 1246.8 cpm
Dose 10^-4 M
  Incorporated 3H-thymidine: 4889.8 ± 495.1 cpm
Dose 10^-5 M
  Incorporated 3H-thymidine: 1371.8 ± 249.1 cpm
Dose 10^-6 M
  Incorporated 3H-thymidine: 1406.5 ± 470.5 cpm
